This assay has as its target T1, Beta-3 Adrenergic Receptor (Homo sapiens, UniProt P13945).
T1 construct: expressed in transfected cells; host or cells: CHO-K1
Nature of the assay: Homogeneous Time-Resolved Fluorescence (HTRF) cAMP antagonist assay. Format: cell-based. Conditions: Beta-3 Adrenergic Receptor IC50 Values, isoproterenol at EC90. The protocol: Example 1: IC50 Determinations in Homogeneous Time-Resolved Fluorescence (HTRF®) cAMP Antagonist Assays
HTRF cAMP assays were performed according to manufacturer's instructions (Cisbio, cAMP Dynamic 2 Assay Kit; #62AM4PEJ). CHO-K1 cells stably expressing recombinant receptor were harvested and suspended in warm PBS to make a 300,000 cells/mL stock. This cell suspension was dispensed into 384 well assay plates (PerkinElmer ProxiPlate #6008280) at 5 μL per well (1500 cells/well) along with a cAMP standard curve.
Compounds were dissolved and serially diluted (5-fold) in DMSO to generate a 10-point dose response stock. […] After a brief incubation, 2.5 μL of isoproterenol stock, prepared at a concentration 4 times its EC90 at the receptor of interest, was added to the wells. The EC90 for isoproterenol, a beta-adrenergic agonist, was determined in separate experiments using standard methods to measure agonist potencies.
Following a 1-hour incubation at room temperature, 5 μL of cAMP-D2 Reagent diluted in Lysis Buffer was added to each well followed by 5 μL of Cryptate Reagent. Plates were further incubated at room temperature for 1 hour prior to reading. Time resolved fluorescence measurements were collected on a suitable, HTRF-capable plate reader.
Counts from the plate reader were fit to the cAMP standard curve on the assay plate in order to determine cAMP concentrations in each well, and these values were used to construct dose-response curves to obtain IC50 values.
In general terms: Time-resolved FRET reads energy transfer from a long-lived donor to a nearby acceptor.

[1] abbreviates: table of B compounds, CHO-K1 cells.

Some results are limits rather than exact numbers.

T1 sequence (P13945 whole entry, species assumed): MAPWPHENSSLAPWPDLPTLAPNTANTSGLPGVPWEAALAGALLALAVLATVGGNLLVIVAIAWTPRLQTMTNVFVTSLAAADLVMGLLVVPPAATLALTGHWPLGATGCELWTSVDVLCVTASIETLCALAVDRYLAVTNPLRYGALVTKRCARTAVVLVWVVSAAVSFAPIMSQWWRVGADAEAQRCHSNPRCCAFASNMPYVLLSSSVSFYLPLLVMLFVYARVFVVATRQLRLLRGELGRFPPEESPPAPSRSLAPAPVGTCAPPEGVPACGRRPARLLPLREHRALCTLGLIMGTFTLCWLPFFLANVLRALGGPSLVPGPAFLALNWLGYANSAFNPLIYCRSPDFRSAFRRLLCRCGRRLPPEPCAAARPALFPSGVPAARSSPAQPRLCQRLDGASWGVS

Consider `CN1CCOc2ncc(S(=O)(=O)N3CCC4(CC3)C[C@@H](NC[C@H](O)COc3cccc(S(=O)(=O)N[C@@H]5CCC[C@@H]5O)c3)CO4)cc21` [Compound B437, 3-((S)-2-hydroxy-3-((R)-8-(1-methyl-2,3-dihydro-1H-pyrido[2,3-b][1,4]oxazin-7-ylsulfonyl)-1-oxa-8-azaspiro[4.5]decan-3-ylamino)propoxy)-N-((1R,2S)-2-hydroxycyclopentyl)benzenesulfonamide], for which, under setting [1], the half-maximal inhibitory concentration (IC50) worked out at 0.472 µM.

Compound `CNS(=O)(=O)c1cccc(OC[C@@H](O)CN[C@H]2COC3(CCN(c4nccc(C(=O)O)n4)CC3)C2)c1` [Compound B582, 2-((R)-3-((S)-2-hydroxy-3-(3-(N-methylsulfamoyl)phenoxy)propylamino)-1-oxa-8-azaspiro[4.5]decan-8-yl)pyrimidine-4-carboxylic acid] yielded an IC50 (table of B compounds, cells in μM, CHO-K1 cells) not below 100 µM.

In turn, `CNS(=O)(=O)c1cccc(OC[C@@H](O)CN[C@H]2COC3(CCN(S(=O)(=O)c4cncc(-c5ccc(CN)cc5)c4)CC3)C2)c1` [Compound B375, 3-((S)-3-((R)-8-(5-(4-(aminomethyl)phenyl)pyridin-3-ylsulfonyl)-1-oxa-8-azaspiro[4.5]decan-3-ylamino)-2-hydroxypropoxy)-N-methylbenzenesulfonamide] yielded a 50% inhibitory concentration (IC50) under setting [1] of 0.0254 µM.

For `O=S(=O)(c1cccc(OC[C@@H](O)CN[C@H]2COC3(CCN(S(=O)(=O)c4cnc5cc[nH]c5c4)CC3)C2)c1)C1CC1` [Compound A309, (S)-1-((R)-8-(1H-pyrrolo[3,2-b]pyridin-6-ylsulfonyl)-1-oxa-8-azaspiro[4.5]decan-3-ylamino)-3-(3-(cyclopropylsulfonyl)phenoxy)propan-2-ol], the IC50 (table of A compounds, CHO-K1 cells stably expressing recombinant receptor) was 0.007 µM.

By IC50 is commonly meant the concentration needed to halve the response being measured.

These data come from patent US20240358689A1, “Modulators Of The Beta-3 Adrenergic Receptor Useful For The Treatment Or Prevention Of Renal Cystic Disease and Cardiorenal Syndrome” (Arena Pharmaceuticals, Inc., priority 2021, published 2024).
